Legend:
[1] = In vitro human liver microsomal (HLM) stability assay; format: in vitro ADME; conditions: vs non-isotopically enriched drug; 1 mg per mL liver microsome protein, 1 μM, 37° C.; + marks the range of the column head
Method: Liver microsomal stability assays are conducted at 1 mg per mL liver microsome protein with an NADPH-generating system in 2% NaHCO3 (2.2 mM NADPH, 25.6 mM glucose 6-phosphate, 6 units per mL glucose 6-phosphate dehydrogenase and 3.3 mM MgCl2). Test compounds are prepared as solutions in 20% acetonitrile-water and added to the assay mixture (final assay concentration 1 μM) and incubated at 37° C. Final concentration of acetonitrile in the assay should be <1%. Aliquots (50 μL) are taken out at times 0, 7.5, 15, 22.5, and 30 min, and diluted with ice cold acetonitrile (200 μL) to stop the reactions. Samples are centrifuged at 12,000 RPM for 10 min to precipitate proteins. Supernatants are transferred to micro centrifuge tubes and stored for LC/MS/MS analysis of the degradation half-life of the test compounds.

[2] = treatment of mild to moderate asthma; cited from earlier work
[3] = biological target: T1, cytochrome P450 CYP3A4 (Homo sapiens, UniProt P08684); conditions: human liver microsomes; at concentrations near clinically achieved total plasma concentrations; cited from earlier work
T1 construct: in vitro studies using human liver microsomes; from tissue; host or cells: human liver microsomes

[4] = biological target: T2, cytochrome P450 CYP2C9 (Homo sapiens, UniProt P11712); conditions: human liver microsomes; at concentrations near clinically achieved total plasma concentrations; cited from earlier work
T2 construct: in vitro studies using human liver microsomes; from tissue; host or cells: human liver microsomes
T2 sequence (P11712 whole entry): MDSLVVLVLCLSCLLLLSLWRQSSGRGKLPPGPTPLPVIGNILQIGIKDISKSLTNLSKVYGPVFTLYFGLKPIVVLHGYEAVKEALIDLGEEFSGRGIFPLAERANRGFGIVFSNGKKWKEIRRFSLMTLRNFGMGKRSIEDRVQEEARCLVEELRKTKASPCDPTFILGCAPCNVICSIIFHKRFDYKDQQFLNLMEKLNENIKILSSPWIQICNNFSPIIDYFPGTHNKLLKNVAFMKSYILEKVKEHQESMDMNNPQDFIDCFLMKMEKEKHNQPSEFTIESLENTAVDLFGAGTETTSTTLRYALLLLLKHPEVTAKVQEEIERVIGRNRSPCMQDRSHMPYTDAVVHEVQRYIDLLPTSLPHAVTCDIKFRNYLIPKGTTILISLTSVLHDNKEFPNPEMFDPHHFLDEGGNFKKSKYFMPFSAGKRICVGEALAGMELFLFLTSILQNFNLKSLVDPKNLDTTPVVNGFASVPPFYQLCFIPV

T1 sequence (P08684 whole entry): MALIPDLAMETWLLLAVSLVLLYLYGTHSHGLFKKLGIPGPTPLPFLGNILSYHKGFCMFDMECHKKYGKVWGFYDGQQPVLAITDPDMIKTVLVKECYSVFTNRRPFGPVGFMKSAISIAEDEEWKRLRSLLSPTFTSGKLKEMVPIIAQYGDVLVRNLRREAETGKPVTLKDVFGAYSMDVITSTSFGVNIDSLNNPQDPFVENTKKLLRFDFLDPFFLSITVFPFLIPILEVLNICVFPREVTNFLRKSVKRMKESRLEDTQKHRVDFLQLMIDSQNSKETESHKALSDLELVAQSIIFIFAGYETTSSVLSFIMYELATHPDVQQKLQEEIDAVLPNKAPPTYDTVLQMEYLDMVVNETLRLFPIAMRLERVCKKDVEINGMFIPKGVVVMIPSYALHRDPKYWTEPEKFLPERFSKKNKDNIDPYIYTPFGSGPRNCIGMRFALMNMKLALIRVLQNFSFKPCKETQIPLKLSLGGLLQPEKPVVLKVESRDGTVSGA

COc1cc(C(=O)NS(=O)(=O)c2ccccc2C)ccc1Cc1cn(C)c2ccc(NC(=O)OC3CCCC3)cc12 [Example 1, reference compound]
% increase of HLM degradation half-life, 5%-15% [1]: + (5%-15%)

[2H]C([2H])([2H])Oc1cc(C(=O)NS(=O)(=O)c2ccccc2C)ccc1Cc1cn(C)c2ccc(NC(=O)OC3CCCC3)cc12 [Example 2]
% increase of HLM degradation half-life, 5%-15% [1]: + (5%-15%)

[2H]C([2H])([2H])c1ccccc1S(=O)(=O)NC(=O)c1ccc(Cc2cn(C)c3ccc(NC(=O)OC4CCCC4)cc23)c(OC)c1 [Example 3]
% increase of HLM degradation half-life, 15%-25% [1]: + (15%-25%)

[2H]C([2H])([2H])n1cc(Cc2ccc(C(=O)NS(=O)(=O)c3ccccc3C)cc2OC)c2cc(NC(=O)OC3CCCC3)ccc21 [Example 4]
% increase of HLM degradation half-life, 15%-25% [1]: + (15%-25%)

[2H]C([2H])([2H])Oc1cc(C(=O)NS(=O)(=O)c2ccccc2C([2H])([2H])[2H])ccc1Cc1cn(C([2H])([2H])[2H])c2ccc(NC(=O)OC3([2H])C([2H])([2H])C([2H])([2H])C([2H])([2H])C3([2H])[2H])cc12 [Example 6]
% increase of HLM degradation half-life, 15%-25% [1]: + (15%-25%)

[2H]C([2H])([2H])Oc1cc(C(=O)NS(=O)(=O)c2ccccc2C([2H])([2H])[2H])ccc1Cc1cn(C([2H])([2H])[2H])c2ccc(NC(=O)OC3CCCC3)cc12 [Example 7]
% increase of HLM degradation half-life, column >25% [1]: + (>25%)

COc1cc(C(=O)NS(=O)(=O)c2ccccc2C)ccc1Cc1cn(C)c2ccc(NC(=O)OC3CCCC3)cc12 [zafirlukast, 4-(5-cyclopentyloxy-carbonylamino-1-methyl-indol-3-ylmethyl)-3-methoxy-N—O-tolylsulfonylbenzamide]
hepatotoxicity [2]: occasional idiosyncratic hepatotoxicity
inhibition of cytochrome P450 CYP3A4 isoenzyme [3]: inhibits
inhibition of cytochrome P450 CYP2C9 isoenzyme [4]: inhibits
